Where two headings read alike, the source gives them in different places.
Tests used:
[1] = system: Sarcoma 180 mouse solid tumor; experiment: Antitumor activity against Sarcoma 180 mouse solid tumor; assay type: in vivo, mouse (ddY); details: Sarcoma-180, iv, 168 h; for response vs control in vivo at 16 mg/kg: 16 mg/kg i.v. once
Method: To a ddY mouse were intraperitoneally transplanted 5×10^6 sarcoma 180 cells. On the seventh day from the transplant, the cells were collected from the ascites, washed once with sterilized physiological saline, and then diluted with sterilized physiological saline to prepare a cell suspension having a concentration of 5×10^7 cells/mL. This suspension was transplanted in an amount of 0.01 mL to a subcutaneous part of the right axilla of each of male ddY mice each weighing 20±1 g.
A test compound was dissolved in physiological saline containing polyoxyethylene sorbitan monolaurate. At 24 hours after the tumor transplant, 0.2 mL of the solution was intravenously administered to the tail of each of a group of five mice.

[2] = system: HeLa S3 cells; experiment: HeLa S3 Cell Growth Inhibition Test; assay type: cell-based
Method: In each well of a 96-well microtiter plate was placed 0.1 mL of HeLa S3 cells having a concentration of 8×10^3 cells/mL and prepared in an MEM culture medium containing 10% fetal bovine serum and 2 mM glutamine. After the cells were incubated overnight at 37° C. in a carbon dioxide incubator, a test compound suitably diluted with a medium was added to the wells in an amount of 0.05 mL for each well. The cells were incubated at 37° C. for 72 hours in a carbon dioxide incubator. After the culture supernatant was removed, 0.1 mL of a culture medium containing 0.02% Neutral Red was added to each well. The cells were then incubated at 37° C. for 1 hour in a carbon dioxide incubator to dye the cells. After the culture supernatant was removed, each residue was rinsed once with physiological saline and the pigment was extracted with 0.001 N hydrochloric acid/30% ethanol. The absorbance at 550 nm of each extract was measured with a microplate reader. The drug concentration required for the 50% inhibition of cell growth, which is referred to as IC50, was calculated by comparing the absorbance for untreated cells with those for cells treated with the drug in known concentrations.

[3] = 8.0 mg/kg i.v. once, 24 hours after transplant, tumor volume on day 7, read-out: T/C (tumor volume ratio treated/control)
[4] = Homo sapiens, HeLa S3, 72 h, HeLa S3, 72 hours incubation, Neutral Red, read-out: IC50, HeLa S3 cell growth inhibition
[5] = 4.0 mg/kg i.v. once, 24 hours after transplant, tumor volume on day 7, read-out: T/C (tumor volume ratio treated/control)
[6] = read-out: T/C (tumor volume ratio treated/control)
[7] = Homo sapiens, HeLa S3, 72 h, read-out: IC50, HeLa S3 cell growth inhibition, HeLa S3, 72 hours incubation, Neutral Red
[8] = 24 hours after transplant, tumor volume on day 7, read-out: T/C (tumor volume ratio treated/control)

For `CC1=CC(OC2CCCCO2)C(=O)C=CC=Cc2csc(n2)C(C)N2C(=O)CC(C(C)(O)C(=O)SCOC(=O)C(C)(C)NC(=O)OCc3ccccc3)(CC1)[S+]2[O-]` (single isomer, unassigned) [Compound 4], the response vs control in vivo at 8 mg/kg [1, 3] was 30% and the IC50 [2, 4] was 39 nM.

In the case of `COC(=O)NCC(=O)OCSC(=O)C(C)(O)C12CC/C(C)=C/C(OC3CCCCO3)C(=O)/C=C/C=C\c3csc(n3)C(C)N(C(=O)C1)[S+]2[O-]` (single isomer, unassigned) [Compound 41], the response vs control in vivo at 4 mg/kg [1, 5] is reported as 32% and the IC50 ([2]; HeLa S3, 72 hours incubation, Neutral Red, read-out: IC50, HeLa S3 cell growth inhibition) is reported as 4 nM.

`COC(=O)[C@H](CCC(=O)OCSC(=O)C(C)(O)C12CC/C(C)=C/C(OC3CCCCO3)C(=O)/C=C/C=C\c3csc(n3)C(C)N(C(=O)C1)[S+]2[O-])NC(=O)[C@@]12O[C@H]3COC(C)(C)O[C@H]3[C@@H]1OC(C)(C)O2` (single isomer, unassigned) [Compound 50] showed a response vs control in vivo at 8 mg/kg [1, 6] of 41% and an IC50 [2, 7] of 16 nM.

In the case of `CC1=CC(O)C(=O)C=CC=Cc2csc(n2)C(C)N2C(=O)CC(C(C)(O)C(=O)SCOC(=O)C(C)(C)NC(=O)OCc3ccccc3)(CC1)[S+]2[O-]` (centres unmarked) [Compound 3], the response vs control in vivo at 16 mg/kg [1, 8] is reported as 21% and the IC50 [2, 4] is reported as 130 nM.

Compound `CC1=CC(OC2CCCCO2)C(=O)C=CC=Cc2csc(n2)C(C)N2C(=O)CC(C(C)(O)C(=O)SCOC(=O)c3ccccc3)(CC1)[S+]2[O-]` (centres unmarked) [Compound 7] has a response vs control in vivo at 4 mg/kg [1, 6] of 23% and an IC50 [2, 7] of 50 nM.

`CC1=CC(O)C(=O)C=CC=Cc2csc(n2)C(C)N2C(=O)CC(C(C)(O)C(=O)SCOC(=O)C3CCC(C(=O)O)CC3)(CC1)[S+]2[O-]` (centres unmarked) [Compound 11] was tested, and the response vs control in vivo at 4 mg/kg [1, 6] was 48% and the IC50 ([2]; Homo sapiens, HeLa S3, 72 h, read-out: IC50, HeLa S3 cell growth inhibition, footnote *: Value after 72 hours of drug treatment) was 100 nM.

In the case of `CC1=CC(OC2CCCCO2)C(=O)C=CC=Cc2csc(n2)C(C)N2C(=O)CC(C(C)(O)C(=O)SCOC(=O)C3CCC(C(=O)O)CC3)(CC1)[S+]2[O-]` (centres unmarked) [Compound 12], the response vs control in vivo at 8 mg/kg [1, 3] is reported as 47% and the IC50 [2, 4] is reported as 870 nM.

`CC1=CC(O)C(=O)C=CC=Cc2csc(n2)C(C)N2C(=O)CC(C(C)(O)C(=O)SCOC(=O)CO)(CC1)[S+]2[O-]` (centres unmarked) [Compound 14] showed a response vs control in vivo at 2 mg/kg [1, 6] of 44% and an IC50 [2, 7] of 380 nM.

`CC1=CC(OC2CCCCO2)C(=O)C=CC=Cc2csc(n2)C(C)N2C(=O)CC(C(C)(O)C(=O)SCOC(=O)CO)(CC1)[S+]2[O-]` (centres unmarked) [Compound 15] gave a response vs control in vivo at 1 mg/kg [1, 6] of 45% and an IC50 [2, 7] of 14 nM.

Work on `CC1=CC(O)C(=O)C=CC=Cc2csc(n2)C(C)N2C(=O)CC(C(C)(O)C(=O)SCOC(=O)CNC(=O)OC(C)(C)C)(CC1)[S+]2[O-]` (centres unmarked) [Compound 16] yielded a response vs control in vivo at 2 mg/kg [1, 6] of 47% and an IC50 [2, 7] of 6.1 nM.

Compound `CC1=CC(O)C(=O)C=CC=Cc2csc(n2)C(C)N2C(=O)CC(C(C)(O)C(=O)SCOC(=O)CC[C@H](NC(=O)OC(C)(C)C)C(=O)OC(C)(C)C)(CC1)[S+]2[O-]` (some centres unmarked) [Compound 22] has a response vs control in vivo at 4 mg/kg [1, 5] of 42% and an IC50 [2, 4] of 7.4 nM.

`COC(=O)[C@H](CCC(=O)OCSC(=O)C(C)(O)C12CCC(C)=CC(O)C(=O)C=CC=Cc3csc(n3)C(C)N(C(=O)C1)[S+]2[O-])NC(=O)[C@H]1O[C@@H]2OC(C)(C)O[C@@H]2[C@H]2OC(C)(C)O[C@H]21` (some centres unmarked) [Compound 25] showed a response vs control in vivo at 16 mg/kg [1, 8] of 30% and an IC50 [2, 4] of 800 nM.

`CC(=O)NC(Cc1ccc(OC(C)=O)cc1)C(=O)OCSC(=O)C(C)(O)C12CCC(C)=CC(O)C(=O)C=CC=Cc3csc(n3)C(C)N(C(=O)C1)[S+]2[O-]` (centres unmarked) [Compound 29] gave a response vs control in vivo at 4 mg/kg [1, 5] of 47% and an IC50 [2, 4] of 400 nM.

With `COC(=O)NCC(=O)OCSC(=O)C(C)(O)C12CC/C(C)=C/C(OC3CCCCO3)C(=O)/C=C/C=C\c3csc(n3)C(C)N(C(=O)C1)[S+]2[O-]` (centres unmarked) [Compound 40] the response vs control in vivo at 4 mg/kg [1, 5] was 36% and the IC50 [2, 4] was 15 nM.

For `C/C1=C\C(OC2CCCCO2)C(=O)/C=C/C=C\c2csc(n2)C(C)N2C(=O)CC(C(C)(O)C(=O)SCOC(=O)CCNC(=O)[C@H]3O[C@@H]4OC(C)(C)O[C@@H]4[C@H]4OC(C)(C)O[C@H]43)(CC1)[S+]2[O-]` (some centres unmarked) [Compound 45], the response vs control in vivo at 8 mg/kg [1, 6] was 45% and the IC50 [2, 7] was 44 nM.

`CC(=O)Oc1ccc(C(=O)OCSC(=O)C(C)(O)C23CC/C(C)=C/C(OC4CCCCO4)C(=O)/C=C/C=C\c4csc(n4)C(C)N(C(=O)C2)[S+]3[O-])cc1` (centres unmarked) [Compound 53] gave a response vs control in vivo at 8 mg/kg [1, 3] of 50% and an IC50 [2, 4] of 35 nM.

From patent publication US5981558A, “DC107 derivatives” (Kyowa Hakko Kogyo Co., Ltd., priority 1996, dated 1999)
